The target of data set [1] is T1, membrane-associated human IR-A (Homo sapiens, UniProt P06213).
T1 construct: expressed in transfected cells; host or cells: BHK cells, pZem219B vector, plasma membrane preparation
The data set is described as follows: Insulin receptor affinity on membrane associated receptors (SPA), IR-A. Type of data set: binding. Particulars: relative to human insulin. As for the experimental part: (§1) Membrane-associated human IR and IGF-1R are purified from BHK cells stably transfected with the pZem219B vector containing either the human IR-A, IR-B or IGF-IR insert. BHK cells are harvested and homogenized in ice-cold buffer (25 mM HEPES pH 7.4, 25 mM CaCl2 and 1 mM MgCl2, 250 mg/L bacitracin, 0.1 mM Pefablock). The homogenates are layered on a 41% (w/v) sucrose cushion and centrifuged for 75 minutes at 95000 g at 4° C. The plasma membranes are collected, diluted 1:5 with buffer (as above) and centrifuged again for 45 minutes at 40000 g at 4° C. The pellets are resuspended in a minimal volume of buffer and drawn through a needle (size 23) three times before storage at −80° C. until usage. The relative binding affinity for either of the membrane-associated human IR-A, IR-B or IGF-1R is determined by competition binding in a SPA setup. IR assays are performed in duplicate in 96-well OptiPlates (Perkin-Elmer Life Sciences). Membrane protein is incubated with gentle agitation for 150 minutes at 25° C. with 50 pM [^125IA14Y]-human insulin in a total volume of […] assay buffer (50 mM HEPES, 150 mM NaCl, 5 mM MgSO4, 0.01% Triton X-100, 0.1% (w/v) HSA (Sigma A1887), Complete EDTA-free protease inhibitors), 50 μg of wheat germ agglutinate (WGA)-coated PVT microspheres (GE Healthcare) and increasing concentrations of ligand. Assays are terminated by centrifugation of the plate at 2000 rpm for 2 minutes and bound radioactivity quantified by counting on a TopCount NXT (Perkin-Elmer Life Sciences).
(§2) IGF-1R assays are conducted essentially as for the IR binding assays except that membrane-associated IGF-1R and 50 pM [^125I-Tyr31]-human IGF-1 were employed.

Data set [2] concerns the target T2, membrane-associated human IGF-1R (Homo sapiens, UniProt P08069).
T2 construct: expressed in transfected cells; host or cells: BHK cells, pZem219B vector, plasma membrane preparation
The data set is described as follows: IGF-1 receptor affinity on membrane associated receptors (SPA). It counts as binding. Particulars: membrane-associated IGF-1R, relative to human insulin. On the procedure: as §1, §2

For another data set, the system named is primary rat adipocytes. In words: Lipogenesis in rat adipocytes. It counts as cell-based. Particulars: relative to human insulin. On the procedure: As a measure of in vitro potency of the insulin conjugatess of the invention, lipogenesis can be used. Primary rat adipocytes are isolated from the epididymale fat pads and incubated with 3H-glucose in buffer containing e.g. 0.1% fat free HSA and either standard (human insulin, HI) or insulin conjugates of the invention. The labelled glucose is converted into extractable lipids in a dose dependent way, resulting in full dose response curves. The result is expressed as relative potency (%) with 95% confidence limits of insulin of the invention compared to standard (HI).

Data set [3] in a line: In vivo PK after s.c. dosing, normal rats. Conditions: s.c. 30 nmol/kg, mean value. Also noted: species or system Sprague-Dawley rat. As for the experimental part:
Insulin-Fc conjugates were tested in vivo by subcutaneous (s.c.) administration to normal and streptozotocin (STZ) treated male Sprague-Dawley (SD) rats.
The rats were dosed s.c. in the neck region with a dose of 30 nmol/kg of the insulin-Fc conjugates. Blood samples for blood glucose and plasma insulin analysis were collected from the tongue vein up to 10 days post dosing. The insulin-Fc concentrations were measured by immuno-assay (LLOQ=1000 pM) and the resulting half-life values after s.c. dosing are shown in Table 4. The PK profiles for normal rats are shown in FIG. 3 and for streptozotocin treated rats in FIG. 6. Blood glucose (BG) was measured using Biosen S Line (EKF) and the BG and baseline corrected BG profiles for normal rats are shown in FIGS. 1 and 2 and for streptozotocin treated rats in FIGS. 4 and 5 respectively.

For another data set, the target named is T3, hFcRn ectodomain (Homo sapiens, UniProt P55899).
T3 construct: the hFcRn ectodomain diluted at 4000 nM with 2-fold serial dilutions was injected
T3 sequence (P55899 24-297 limits assumed): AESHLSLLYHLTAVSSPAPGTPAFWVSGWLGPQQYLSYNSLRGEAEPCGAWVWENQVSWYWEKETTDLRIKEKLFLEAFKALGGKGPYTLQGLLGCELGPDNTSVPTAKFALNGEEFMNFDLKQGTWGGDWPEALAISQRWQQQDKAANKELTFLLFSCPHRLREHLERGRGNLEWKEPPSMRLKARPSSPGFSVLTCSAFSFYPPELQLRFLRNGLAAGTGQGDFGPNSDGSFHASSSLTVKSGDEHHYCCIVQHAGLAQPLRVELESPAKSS
T3 sequence (P61769 21-119 partner): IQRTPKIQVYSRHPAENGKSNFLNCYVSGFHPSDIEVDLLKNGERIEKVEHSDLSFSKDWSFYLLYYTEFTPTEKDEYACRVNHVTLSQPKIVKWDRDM
In words: SPR analysis of the binding of hFcRn ECD. Particulars: pH 6.0, 25° C., steady-state fitting; read-out: Kn (μM), binding of hFcRn ECD. As for the experimental part: First, the three Insulin-Fc samples diluted at 10 ug/ml and the wild-type hIgG4 Fc (produced in HEK293 cells, i.e. glycosylated) diluted at 30 ug/ml in 10 mM sodium acetate (pH 4.5) (GE Healthcare, catalogue #BR100350) were immobilized on a CMD50L sensor chip (XanTec Bioanalytics GmbH) at spot 2 or 4 at 70-90 RU in each used flow cell via amine coupling with 1×HBS-EP+ (pH 7.4) (GE Healthcare, catalogue #BR-1006-69) used as the running buffer. The wild-type hIgG4 Fc was used as the control sample. In each used flow cell, spots 2, 3 and 4 were activated by 100 mM N-hydroxysuccinimide (NHS) and 400 mM N-ethyl-N′-dimethylaminopropyl carbodiimide hydrochloride (EDC) mixed at equal volume before the immobilization and blocked by 1 M ethanolamine hydrochloride-NaOH (pH 8.5) after the immobilization. NHS, EDC and ethanolamine were obtained from the Amine Coupling Kit, type 2 (GE Healthcare, catalogue #BR100633).
Next, the hFcRn ectodomain diluted at 4000 nM with 2-fold serial dilutions was injected through each used flow cell for 60 sec to allow for binding of the hFcRn ectodomain to the Insulin-Fc conjugates and wild-type hIgG4 Fc samples immobilized on the sensor chip, followed by dissociation for 180 sec. 1×PBS-EP+ (pH 6.0) was used as the dilution buffer for the hFcRn ectodomain and the running buffer in each binding cycle at the flow rate of 30 ul/min. After each binding cycle, the sensor chip was regenerated with a 60 sec injection of 1×PBS-EP+ (pH 7.4) at the flow rate of 30 ul/min. The 1×PBS-EP+ (pH 7.4) buffer was prepared by diluting 0.5 M EDTA (pH 8.0) (Invitrogen, catalogue #15575038) at 3 mM into 1×PBS-P+ (GE Healthcare, catalogue #28995084). The 1×PBS-EP+ (pH 6.0) buffer was prepared by adjusting the pH of the 1×PBS-EP+ buffer from 7.4 to 6.0 using ˜10 M HCl. The affinities (equilibrium dissociation constants, KD) were determined via steady-state fitting of the binding curves using the 1:1 binding model in Biacore 4000 Evaluation Software 1.0 (GE Healthcare).
Background: SPR reads the build-up and loss of mass on a sensor chip optically.

T2 sequence (P08069 31-736 limits assumed): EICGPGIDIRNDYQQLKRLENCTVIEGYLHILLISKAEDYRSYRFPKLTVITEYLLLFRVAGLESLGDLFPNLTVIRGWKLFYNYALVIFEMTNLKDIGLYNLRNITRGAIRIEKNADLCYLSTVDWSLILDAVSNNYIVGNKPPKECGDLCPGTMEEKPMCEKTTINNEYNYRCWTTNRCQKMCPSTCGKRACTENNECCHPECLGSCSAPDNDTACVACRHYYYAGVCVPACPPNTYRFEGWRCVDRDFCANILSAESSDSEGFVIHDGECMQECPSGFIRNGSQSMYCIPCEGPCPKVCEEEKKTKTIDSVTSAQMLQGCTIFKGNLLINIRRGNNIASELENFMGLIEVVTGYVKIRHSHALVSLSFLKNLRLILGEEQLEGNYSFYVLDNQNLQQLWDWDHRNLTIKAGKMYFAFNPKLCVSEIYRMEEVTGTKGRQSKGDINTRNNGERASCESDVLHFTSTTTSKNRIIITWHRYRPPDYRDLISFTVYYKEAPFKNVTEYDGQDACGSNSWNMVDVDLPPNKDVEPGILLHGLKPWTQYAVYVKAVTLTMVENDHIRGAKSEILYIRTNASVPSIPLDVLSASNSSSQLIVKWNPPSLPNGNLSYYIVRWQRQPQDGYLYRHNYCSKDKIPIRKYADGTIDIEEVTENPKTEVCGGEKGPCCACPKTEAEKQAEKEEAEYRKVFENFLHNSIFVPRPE
T2 sequence (P08069 741-1367 partner limits assumed): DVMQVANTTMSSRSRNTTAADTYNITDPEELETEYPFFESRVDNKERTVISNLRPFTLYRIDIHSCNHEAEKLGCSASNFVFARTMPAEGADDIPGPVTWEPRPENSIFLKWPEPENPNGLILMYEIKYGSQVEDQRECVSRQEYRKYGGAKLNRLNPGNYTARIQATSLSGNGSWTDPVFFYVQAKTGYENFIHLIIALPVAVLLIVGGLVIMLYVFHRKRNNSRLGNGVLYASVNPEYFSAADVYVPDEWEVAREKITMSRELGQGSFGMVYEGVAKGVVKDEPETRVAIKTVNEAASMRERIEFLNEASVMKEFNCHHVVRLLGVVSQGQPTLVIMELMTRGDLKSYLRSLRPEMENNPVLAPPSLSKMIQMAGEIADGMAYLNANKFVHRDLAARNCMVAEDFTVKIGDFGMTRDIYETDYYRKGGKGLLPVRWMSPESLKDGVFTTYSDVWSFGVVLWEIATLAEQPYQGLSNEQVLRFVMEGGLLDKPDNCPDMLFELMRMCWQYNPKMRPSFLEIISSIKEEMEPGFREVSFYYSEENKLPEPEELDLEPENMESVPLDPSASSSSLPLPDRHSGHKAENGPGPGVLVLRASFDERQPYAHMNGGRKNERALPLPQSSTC
T1 sequence (P06213 28-1370 isoform P06213-2 limits assumed): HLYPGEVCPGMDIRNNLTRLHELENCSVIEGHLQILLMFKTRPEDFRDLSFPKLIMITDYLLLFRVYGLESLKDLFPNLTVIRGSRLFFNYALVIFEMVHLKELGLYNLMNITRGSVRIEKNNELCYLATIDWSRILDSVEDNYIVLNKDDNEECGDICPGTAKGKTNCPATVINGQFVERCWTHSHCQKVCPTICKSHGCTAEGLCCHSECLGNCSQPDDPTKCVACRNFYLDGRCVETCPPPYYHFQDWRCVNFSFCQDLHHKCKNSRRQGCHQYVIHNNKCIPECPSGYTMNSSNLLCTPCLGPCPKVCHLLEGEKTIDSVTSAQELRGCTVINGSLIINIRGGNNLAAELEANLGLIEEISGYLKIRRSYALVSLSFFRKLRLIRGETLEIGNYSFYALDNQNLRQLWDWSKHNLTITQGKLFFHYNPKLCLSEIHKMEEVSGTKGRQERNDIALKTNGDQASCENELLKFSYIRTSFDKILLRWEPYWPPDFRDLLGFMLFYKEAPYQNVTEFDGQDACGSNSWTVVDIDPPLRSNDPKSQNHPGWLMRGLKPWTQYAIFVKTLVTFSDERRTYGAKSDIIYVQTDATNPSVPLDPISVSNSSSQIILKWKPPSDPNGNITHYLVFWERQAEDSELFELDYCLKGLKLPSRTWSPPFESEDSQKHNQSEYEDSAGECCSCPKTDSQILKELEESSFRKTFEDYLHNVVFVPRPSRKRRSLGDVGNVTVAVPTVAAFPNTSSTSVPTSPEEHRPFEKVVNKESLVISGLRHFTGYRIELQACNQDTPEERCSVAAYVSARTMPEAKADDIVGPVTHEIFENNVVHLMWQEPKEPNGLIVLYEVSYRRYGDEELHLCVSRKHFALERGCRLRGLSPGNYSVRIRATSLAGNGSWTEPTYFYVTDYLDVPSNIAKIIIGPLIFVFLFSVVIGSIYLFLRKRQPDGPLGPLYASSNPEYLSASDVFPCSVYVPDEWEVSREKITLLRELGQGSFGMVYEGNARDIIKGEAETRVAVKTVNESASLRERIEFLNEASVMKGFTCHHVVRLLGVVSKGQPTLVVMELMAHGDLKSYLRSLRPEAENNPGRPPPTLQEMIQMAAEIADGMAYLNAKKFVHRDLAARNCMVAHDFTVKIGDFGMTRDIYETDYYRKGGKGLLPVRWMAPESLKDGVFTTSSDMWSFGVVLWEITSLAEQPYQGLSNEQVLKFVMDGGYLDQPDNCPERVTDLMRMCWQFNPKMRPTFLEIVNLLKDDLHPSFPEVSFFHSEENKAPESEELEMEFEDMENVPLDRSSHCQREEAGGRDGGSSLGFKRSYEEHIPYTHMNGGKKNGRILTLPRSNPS
T1 sequence (P06213 763-1382 partner limits assumed): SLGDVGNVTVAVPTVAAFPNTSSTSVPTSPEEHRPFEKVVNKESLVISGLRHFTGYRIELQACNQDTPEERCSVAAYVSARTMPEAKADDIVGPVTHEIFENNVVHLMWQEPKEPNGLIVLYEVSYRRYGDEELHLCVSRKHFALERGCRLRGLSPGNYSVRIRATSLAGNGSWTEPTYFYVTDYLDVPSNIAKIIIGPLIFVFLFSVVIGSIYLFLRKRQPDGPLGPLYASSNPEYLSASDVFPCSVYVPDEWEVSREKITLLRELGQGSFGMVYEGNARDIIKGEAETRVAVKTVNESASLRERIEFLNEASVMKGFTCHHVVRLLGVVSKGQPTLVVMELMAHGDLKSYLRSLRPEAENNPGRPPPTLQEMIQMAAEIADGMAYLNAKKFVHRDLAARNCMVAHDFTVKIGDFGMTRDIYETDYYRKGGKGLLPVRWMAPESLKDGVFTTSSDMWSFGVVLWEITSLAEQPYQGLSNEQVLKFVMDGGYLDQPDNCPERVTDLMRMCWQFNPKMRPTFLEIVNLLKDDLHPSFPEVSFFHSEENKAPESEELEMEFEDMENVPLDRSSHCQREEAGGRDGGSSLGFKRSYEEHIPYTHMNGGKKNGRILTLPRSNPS

On to “(A14E, A21G, A22(GQEP)11, A66G, A67Q, A68E, A69K^, A70P, B16H, B25H, B29R, desB30 human insulin)/(226A, 227G, 228P, 234A, 235K, 297E, 315Q, 384Q, des447 hIgG4-Fc(226-447))3,5-bis[(2-acetyl)amino]benzoyl Conjugate [Example 5.2]”, for which the “hIR-A mem Rel. aff. (%)” value in data set [1] came to 1.27%. In data set [2], the “IGF1R mem Rel. aff. (%)” value is 0.10%. In addition, the “Lipogenesis Rel. pot. (%)” value in the data set on primary rat adipocytes turned out to be 1.14%. Besides, in data set [3], the “PK normal rat [T1/2, s.c. (h)]” value turned out to be 38 h. For the same substance, the Kd on hFcRn ectodomain turned out to be 1.6 µM.

In the case of “(A14E, A21G, A22(GQEP)12, A70K^, A71P, B25H, B29R, desB30 human insulin)/(226A, 227G, 228P, 234A, 235K, 297E, 315Q, 384Q, des447 hIgG4-Fc(226-447))3,5-bis[(2-acetyl)amino]benzoyl Conjugate [Example 5.1]”, in data set [1], the “hIR-A mem Rel. aff. (%)” value is listed as 2.97%. For the same substance, the “IGF1R mem Rel. aff. (%)” value in data set [2] stood at 0.91%. In addition, the “Lipogenesis Rel. pot. (%)” value in the data set with primary rat adipocytes is on record as 2.86%. Further, in data set [3], the “PK normal rat [T1/2, s.c. (h)]” value is 20 h. Moreover, at hFcRn ectodomain, the Kd turned out to be 1.5 µM.

The record behind these values is patent publication US20210393745A1, “OLIGOMER EXTENDED INSULIN-FC CONJUGATES AND THEIR MEDICAL USE” (Novo Nordisk A/S, priority 2018, published 2021).
